Experimental data as given in patent US4963570A, “1-(acetylaminophenyl)-2-aminopropanone derivatives and pharmaceutical compositions thereof” (Laboratoire L. Lafon, priority 1983, dated 1990).
Entries after “also recorded” stand apart in the source; their conditions may differ.

What was measured:
[1] = test system: rats; experiment: action on stereotypies in rats (α-methyltyrosine, haloperidol, reserpine)
[2] = test system: male mice; conditions: reference stimulant agents; cited from earlier work
[3] = test system: male mice; experiment: acute toxicity, intraperitoneal (lethal doses); type: in vivo, mouse; conditions: i.p.
Description: By intraperitoneal administration to male mice, the LD-30 (lethal dose for 30% of the animals tested) is of the order of 128 mg/kg and the LD-50 is of the order of about 200 mg/kg.

[4] = test system: mice; experiment: action on the spontaneous motility (actimeter); type: in vivo, mouse; conditions: mice, i.p.; dose not stated
Description: 0.5 hour after they have received CRL 41 224, the mice (6 per dose, 12 control animals) are placed in an actimeter, where their motility is recorded for 30 minutes.

[5] = test system: mice; experiment: interaction with reserpine; type: in vivo, mouse; conditions: i.p.; dose not stated
Description: Four hours after the intraperitoneal injection of 2.5 mg/kg of reserpine, groups of 6 mice receive CRL 41 224.

[6] = test system: CNS; experiment: overall neuropsychopharmacological (CNS) profile; type: in vivo, mouse; rat; conditions: i.p., mice and rats; dose not stated
Description: The neuropsychopharmacological study of CRL 41 219 was carried out as indicated above for CRL 41 224.
The neuropsychopharmacological study of CRL 41 220 was carried out in accordance with the procedures given above for CRL 41 224.

[7] = test system: mice; experiment: motility reduced by habituation to the enclosure; type: in vivo, mouse; conditions: i.p., dose not stated
Description: After they have stayed in the actimeters for 18 hours, the mice (6 per dose, 12 control animals) receive CRL 41 224. They are immediately returned to their respective enclosures and, half an hour later, their motility is recorded for 30 minutes.

[8] = test system: mice; experiment: interaction with barbital; type: in vivo, mouse; conditions: i.p.; dose not stated
Description: Half an hour after the administration of CRL 41 224, groups of 10 mice receive an intraperitoneal injection of barbital (220 mg/kg).

[9] = test system: mice; experiment: action on the behavioral despair; type: in vivo, mouse; conditions: i.p., dose not stated
Text: Half an hour after they have received CRL 41 224, groups of 6 mice are placed in a beaker filled with water to a height of 6 cm. The total period of immobility between the 2nd and 6th minutes following immersion is noted.

[10] = test system: peripheral α-adrenergic stimulation; experiment: signs of peripheral adrenergic stimulation; type: in vivo, mouse; rat; conditions: i.p., dose not stated
Description: (§1) Groups of three animals are observed before and then 0.25 hour, 0.50 hour, 1 hour, 2 hours, 3 hours and 24 hours after the administration of CRL 41 224.

[11] = test system: rats; experiment: overall behavior and reactivities in rats; type: in vivo, rat; conditions: i.p., dose not stated
Description: as §1

[12] = test system: rats; experiment: interaction with amphetamine; type: in vivo, rat; conditions: rats, i.p.; dose not stated
Description: Amphetamine (2 mg/kg) is injected intraperitoneally into groups of 6 rats 30 minutes after the administration of CRL 41 224.

[13] = test system: mice; experiment: motility reduced by hypoxic aggression; type: in vivo, mouse; conditions: i.p., dose not stated
Description: Half an hour after they have received CRL 41 224, the mice (10 per dose, 20 control animals) are subjected to acute hypobaric anoxia [pressure reduction of 600 mm Hg (i.e. about 8×10^4 Pa) in 90 seconds; release of vacuum in 45 seconds] and are then placed in an actimeter, where their motility is recorded for 10 minutes.

[14] = test system: mice; experiment: four plate test, traction and electric shock; type: in vivo, mouse; conditions: i.p.
Description: The test is performed on groups of 10 mice 30 minutes after the administration of CRL 41 224.

[15] = test system: mice; experiment: interaction with apomorphine in mice; type: in vivo, mouse; conditions: i.p.; dose not stated
Description: Groups of 6 mice receive CRL 41 224 0.5 hour before the subcutaneous injection of 1 or 16 mg/kg of apomorphine.

[16] = test system: rats; experiment: interaction with apomorphine in rats; type: in vivo, rat; conditions: i.p., dose not stated
Description: CRL 41 224 is administered to groups of 6 rats 0.5 hour before the subcutaneous injection of 0.5 mg/kg of apomorphine.

[17] = test system: mice; experiment: action on the intergroup aggression; type: in vivo, mouse; conditions: i.p., dose not stated
Description: After they have stayed for 3 weeks in the 2 halves of a cage divided by an opaque partition, groups of 3 mice receive CRL 41 224. Half an hour later, the two groups from the same cage are brought together by removal of the partition, and the number of fights which occur in 10 minutes is noted. Half the test is performed on ordinary mice (NMRI, C.E.R. January) and half on NMRI (Iffa Credo) mice.

[18] = test system: mice; experiment: interaction with oxotremorine; type: in vivo, mouse; conditions: i.p.
Description: CRL 41 224 is administered to groups of 6 mice 0.5 hour before the intraperitoneal injection of 0.5 mg/kg of oxotremorine.

[19] = test system: mice; experiment: overall behavior and reactivities in mice; type: in vivo, mouse; conditions: mice, i.p.; dose not stated
Description: as §1

[20] = test system: mice; experiment: toxicity to grouped mice compared with isolated mice; type: in vivo, mouse

Structure (SMILES)	motor effects with I.V.C. administration of noradrenaline [2]	spontaneous motility / motor activity [4]	hypothermia induced by reserpine [5]	ptosis induced by reserpine [5]	overall action on the CNS [6]	motor activity after habituation to the enclosure [7]	sleep induced by barbital [8]	period of immobility or "despair" [9]	mydriasis [10]	peripheral adrenergic stimulation, overall [10]	stereotype movements in rats [11]	stereotypies induced by amphetamine [12]	motor recovery after hypoxic aggression [13]	hypothermia induced by apomorphine [15]	stereotypies induced by apomorphine [16]	hypothermia induced by oxotremorine ([18]; dose not stated)	excitation in mice [19]	also measured
COC(=O)C(c1ccccc1)C1CCCCN1 (stereo not drawn) [methylphenidate, reference compound]	potentialized by I.V.C. administration of noradrenaline	–	–	–	–	–	–	–	–	–	–	–	–	–	–	–	–	effect of reserpine on induced stereotypies ([1]; reserpine 4 mg/kg i.p. 24 hours before): only a moderate reduction of the stereotypies
CN1Cc2c(N)cccc2C(c2ccccc2)C1 (stereo not drawn) [nomifensine]	potentialized by I.V.C. administration of noradrenaline	–	–	–	–	–	–	–	–	–	–	–	–	–	–	–	–	–
CC(N)Cc1ccccc1 (stereo not drawn) [amphetamine, reference compound]	potentialized by I.V.C. administration of noradrenaline	–	–	–	–	–	–	–	–	–	–	–	–	–	–	–	–	effect of haloperidol on induced stereotypies ([1]; haloperidol 0.25 mg/kg i.p. 0.5 h before): almost totally prevents the appearance of stereotypies; effect of haloperidol on induced stereotypies ([1]; haloperidol 0.5 mg/kg i.p. 0.5 h before): totally inhibits the said stereotypies
COC(=O)[C@H]1[C@@H](OC(=O)c2ccccc2)C[C@@H]2CC[C@H]1N2C [cocaine]	potentialized by I.V.C. administration of noradrenaline	–	–	–	–	–	–	–	–	–	–	–	–	–	–	–	–	–
CC(=O)Nc1ccc(C(=O)C(C)NC2CC2)cc1 (stereo not drawn) [CRL 41 245]	–	increase in the spontaneous motor activity	antagonism of the hypothermia induced by apomorphine, reserpine	reduction in the ptosis induced by reserpine	behaves as an antidepressant with a strong stimulant component	resumption in the motor activity of mice accustomed to their enclosure	reduction in the duration of the sleep induced by barbital	reduction in the period of immobility	mydriasis in rats	peripheral α-adrenergic stimulation	presence of stereotype movements in mice and rats	potentiation of the stereotypies induced by apomorphine and amphetamine	improvement in the motor recovery in mice subjected to acute hypoxia	antagonism of the hypothermia induced by apomorphine	potentiation of the stereotypies induced by apomorphine	antagonism of the hypothermia induced by apomorphine, reserpine and oxotremorine	excitation with hyperreactivity in mice	LD-0 (maximum non-lethal dose) [3]: greater than 256 mg/kg; LD-100 [3]: less than or equal to 512 mg/kg; piloerection ([10]; mice and rats): piloerection in mice and rats; excitation in rats [11]: excitation with hyperreactivity in mice and rats; convulsant effects of electric shock ([14]; strong/high dose): total antagonism; number of punished passes in the 4 plate test ([14]; mice, dose not stated): increase in the number of punished passes; intergroup aggression [17]: a reduction in the intergroup aggression; trembling due to oxotremorine ([18]; strong dose): a reduction, at a strong dose, in the intensity of the trembling due to oxotremorine; stereotype movements in mice [19]: presence of stereotype movements in mice
CCCNC(C)C(=O)c1ccc(NC(C)=O)cc1 (stereo not drawn) [CRL 41 212]	–	an increase in the spontaneous motility in mice	antagonism of the hypothermia induced by apomorphine, oxotremorine or reserpine	antagonism of the ptosis induced by reserpine	stimulant effects; also recorded: antidepressant effects	a resumption in the motor activity of mice accustomed to their enclosure	antagonism of the sleep induced by barbital	a reduction in the immobility	mydriasis	effects which may reflect peripheral adrenergic stimulation	stereotype movements in rats	potentiation of the stereotypies induced by apomorphine or amphetamine	an improvement in the motor recovery in mice after acute hypoxia	antagonism of the hypothermia induced by apomorphine	potentiation of the stereotypies induced by apomorphine	antagonism of the hypothermia induced by apomorphine, oxotremorine	excitation with hyperreactivity in mice	exophthalmos [10]: absent; salivation [10]: absent; toxicity to grouped mice compared with isolated mice [20]: do not increase the toxicity to grouped mice; suppression of induced stereotype movements by prior injection of alpha-methyltyrosine ([1]; i.p.): not suppressed; convulsant effects of electric shock ([14]; dose not stated): anticonvulsant effects; trembling caused by oxotremorine ([18]; dose not stated): antagonism of the trembling caused by oxotremorine
